The source of these data is patent US9120796B2, “B-lactamase inhibitor picoline salt” (Cubist Pharmaceuticals, Inc., priority 2013, dated 2015).

The nature of data set [1]: Solution stability of salt forms (purity change relative to starting purity). The source says: As part of the program to improve the process for the manufacture of the sodium salt of (2S,5R)-2-(1,3,4-oxadiazol-2-yl)-7-oxo-1,6-diazabicyclo[3.2.1]octan-6-yl hydrogen sulfate, a new intermediate capable of isolation and utility in the production was sought.
Additionally, the picoline salt precursor was examined for solution stability as an alternative hold point for the process.

Data set [2] can be described thus: Stability of isolated solid picoline salt at 2 weeks. In kind it is physicochemical. To be noted: FIG. 23. An excerpt: Also, the volume inefficiency, throughput bottlenecks, and impurity generation associated with the TBA to Na salt resin exchange process created the need for an improved step. Accordingly, there was a need for a stable solid that could be isolated, stored, and be used as needed to produce the desired sodium API in a reliable, scalable process. In screening different salt forms and examining the potential for crystallizations (as a means to isolate the salt forms), the TBA, pyridine, 5-ethyl-2-methylpyridine, and 2,6-lutidine forms of the API were not able to be successfully isolated in solid form.

Data set [3] is described as follows: Solubility characteristics of crystalline form. In kind it is physicochemical. To be noted: a particular (crystalline) form. The source says: The compound of Formula (II) is the 2-picoline salt of (2S,5R)-2-(1,3,4-oxadiazol-2-yl)-7-oxo-1,6-diazabicyclo[3.2.1]octan-6-yl hydrogen sulfate, i.e., 2-methylpyridin-1-ium (2S,5R)-2-(1,3,4-oxadiazol-2-yl)-7-oxo-1,6-diazabicyclo[3.2.1]octan-6-yl sulfate.

Counter-ions that a name gives are not always drawn.

In the case of “tetrabutylammonium (2S,5R)-2-(1,3,4-oxadiazol-2-yl)-7-oxo-1,6-diazabicyclo[3.2.1]octan-6-yl sulfate [TBA salt, reference compound]”, the “solution stability in aqueous environments” value in data set [1] (aqueous solution, high dilution (~1 wt %), FIGS. 21A and 21B) is given as “found to be a risk for long term scale-up”.
With `O=C1N2C[C@@H](CC[C@H]2c2nnco2)N1OS(=O)(=O)O` [Formula (II), 2-methylpyridin-1-ium (2S,5R)-2-(1,3,4-oxadiazol-2-yl)-7-oxo-1,6-diazabicyclo[3.2.1]octan-6-yl sulfate], the “stability of isolated solid” value in data set [2] is given as “found to be stable”. For the same compound, in data set [1] (DCM, room temperature, compared with the TBA salt, FIGS. 22A and 22B), the “solution stability in dichloromethane solution” value was “significantly inferior to the TBA salt”. For the same compound, in data set [1] (in solution, early clinical productions), the stability in solution entry was “unstable in solution”. Moreover, the solubility characteristics entry in data set [3] is “low solubility”.
